Assay results as given in ChEMBL document CHEMBL5252558, “Noonindoles G-L: Indole Diterpene Glycosides from the Australian Marine-Derived Fungus Aspergillus noonimiae CMB-M0339” (J Nat Prod, 2023).
pIC50: −log10 of the molar value. Activity calls are given as the source filed them. No cut-off for these calls is given here.

Tests used:
NCI-H460 = test: Cytotoxicity against human NCI-H460 cells assessed as inhibition of cell growth incubated for 68 hrs by MTT assay; type: functional, cell-based; conditions: NCI-H460, 68 h
Staphylococcus aureus = test: Antibacterial activity against Staphylococcus aureus ATCC 25923 assessed as inhibition of bacterial growth incubated for 24 hrs by spectrophotometric analysis; type: functional, organism-based
SW-620 = test: Cytotoxicity against human SW620 cells assessed as inhibition of cell growth incubated for 68 hrs by MTT assay; type: functional, cell-based; conditions: SW-620, 68 h
Escherichia coli = test: Antibacterial activity against Escherichia coli ATCC 11775 assessed as inhibition of bacterial growth incubated for 24 hrs by spectrophotometric analysis; type: functional, organism-based
Bacillus subtilis = test: Antibacterial activity against Bacillus subtilis ATCC 6633 assessed as inhibition of bacterial growth incubated for 24 hrs by spectrophotometric analysis; type: functional, organism-based
Candida albicans = test: Antifungal activity against Candida albicans ATCC 10231 assessed as inhibition of fungal growth incubated for 48 hrs by spectrophotometric analysis; type: functional, organism-based

CC(C)(O[C@@H]1O[C@H](CO)[C@@H](O)[C@H](O)[C@@H]1O)[C@@H]1CC[C@]2(CO)[C@H](CC[C@@]3(C)[C@H]2CC[C@H]2Cc4c([nH]c5ccccc45)[C@@]23C)O1
pIC50 (NCI-H460): < 4.52
Activity (Staphylococcus aureus): inactive
pIC50 (SW-620): < 4.52
Activity (Escherichia coli): inactive
Activity (Bacillus subtilis): inactive
Activity (Candida albicans): inactive

CC(C)(O[C@@H]1O[C@H](CO)[C@@H](O)[C@H](O)[C@@H]1O)[C@@H]1CC[C@]2(C=O)[C@H](CC[C@@]3(C)[C@H]2CC[C@H]2Cc4c([nH]c5ccccc45)[C@@]23C)O1
pIC50 (NCI-H460): < 4.52
Activity (Staphylococcus aureus): inactive
pIC50 (SW-620): < 4.52
Activity (Escherichia coli): inactive
Activity (Bacillus subtilis): inactive
Activity (Candida albicans): inactive

CC(C)(O[C@@H]1O[C@H](CO)[C@@H](O)[C@H](O)[C@@H]1O)[C@@H]1CC[C@]2(C)[C@H](CC[C@@]3(C)[C@H]2CC[C@H]2Cc4c([nH]c5ccccc45)[C@@]23C)O1
pIC50 (NCI-H460): < 4.52
Activity (Staphylococcus aureus): inactive
pIC50 (SW-620): < 4.52
Activity (Escherichia coli): inactive
Activity (Bacillus subtilis): inactive
Activity (Candida albicans): inactive

CC(C)(O[C@@H]1O[C@H](CO)[C@@H](O)[C@H](O)[C@@H]1O)[C@H]1O[C@@]2(O)CC[C@@]3(C)[C@@H](CC[C@H]4Cc5c([nH]c6ccccc56)[C@@]43C)C2=CC1=O
pIC50 (NCI-H460): < 4.52
Activity (Staphylococcus aureus): inactive
pIC50 (SW-620): < 4.52
Activity (Escherichia coli): inactive
Activity (Bacillus subtilis): inactive
Activity (Candida albicans): inactive

CC(C)(O[C@@H]1O[C@H](CO)[C@@H](O)[C@H](O)[C@@H]1O)[C@H]1O[C@H]2CC[C@@]3(C)[C@@H](CC[C@H]4Cc5c([nH]c6ccccc56)[C@@]43C)C2=CC1=O
pIC50 (NCI-H460): < 4.52
Activity (Staphylococcus aureus): inactive
pIC50 (SW-620): < 4.52
Activity (Escherichia coli): inactive
Activity (Bacillus subtilis): inactive
Activity (Candida albicans): inactive

CC(C)(O[C@@H]1O[C@H](CO)[C@@H](O)[C@H](O)[C@@H]1O)[C@H]1O[C@H]2CC[C@@]3(C)[C@@H](CC[C@H]4Cc5c([nH]c6ccccc56)[C@@]43C)C2=C[C@H]1O
pIC50 (NCI-H460): < 4.52
Activity (Staphylococcus aureus): inactive
pIC50 (SW-620): < 4.52
Activity (Escherichia coli): inactive
Activity (Bacillus subtilis): inactive
Activity (Candida albicans): inactive
